Data taken from US20110053984A1, “NOVEL 4-BENZHYDRYLOXY-TETRAALKYL-PIPERIDINE DERIVATIVES AND THEIR USE AS MONOAMINE NEUROTRANSMITTER RE-UPTAKE INHIBITORS” (NeuroSearch A/S, priority 2008, published 2011).
pIC50: −log10 of the molar value. Where a name gives a salt, the structure may show the parent alone.

How the values were obtained:
[1] = molecular target: T1, serotonine (5-HT) reuptake in synaptosomes (Rattus norvegicus, UniProt P31652); assay: Inhibition of 5-HT reuptake in synaptosomes; type: biochemical; conditions: 3H-5-HT, read-out: 5-HT-uptake IC50
T1 construct: in synaptosomes as described in WO 97/16451; from tissue
T1 sequence (P31652 whole entry): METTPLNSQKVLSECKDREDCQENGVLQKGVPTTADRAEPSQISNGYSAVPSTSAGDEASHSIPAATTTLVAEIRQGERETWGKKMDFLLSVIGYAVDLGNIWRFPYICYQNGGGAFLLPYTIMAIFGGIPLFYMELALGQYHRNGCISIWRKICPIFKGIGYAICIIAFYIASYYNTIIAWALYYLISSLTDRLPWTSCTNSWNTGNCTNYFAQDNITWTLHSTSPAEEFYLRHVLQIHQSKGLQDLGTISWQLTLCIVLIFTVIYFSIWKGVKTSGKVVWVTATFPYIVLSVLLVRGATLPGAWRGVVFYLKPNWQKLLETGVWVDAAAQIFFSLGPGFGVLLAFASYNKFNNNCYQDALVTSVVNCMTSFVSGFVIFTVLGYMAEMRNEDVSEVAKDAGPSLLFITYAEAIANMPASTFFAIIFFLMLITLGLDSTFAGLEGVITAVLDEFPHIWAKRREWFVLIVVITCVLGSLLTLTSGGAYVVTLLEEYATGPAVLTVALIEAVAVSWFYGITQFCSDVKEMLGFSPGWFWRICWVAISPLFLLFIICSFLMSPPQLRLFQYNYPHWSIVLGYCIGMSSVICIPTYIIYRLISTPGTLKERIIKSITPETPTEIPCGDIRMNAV
Protocol: (§1) Compounds were tested for their ability to inhibit the reuptake of the monoamine neurotransmitters dopamine (DA) noradrenaline (NA) and serotonine (5-HT) in synaptosomes as described in WO 97/16451 (NeuroSearch A/S).
(§2) The test values are given as IC50 (the concentration (μM) of the test substance which inhibits the specific binding of ^3H-DA, ^3H-NA, or ^3H-5-HT by 50%).

[2] = molecular target: T2, dopamine (DA) reuptake in synaptosomes (Rattus norvegicus, UniProt P23977); assay: Inhibition of DA reuptake in synaptosomes; type: biochemical; conditions: 3H-DA, read-out: DA-uptake IC50
T2 construct: in synaptosomes as described in WO 97/16451; from tissue
T2 sequence (P23977 whole entry): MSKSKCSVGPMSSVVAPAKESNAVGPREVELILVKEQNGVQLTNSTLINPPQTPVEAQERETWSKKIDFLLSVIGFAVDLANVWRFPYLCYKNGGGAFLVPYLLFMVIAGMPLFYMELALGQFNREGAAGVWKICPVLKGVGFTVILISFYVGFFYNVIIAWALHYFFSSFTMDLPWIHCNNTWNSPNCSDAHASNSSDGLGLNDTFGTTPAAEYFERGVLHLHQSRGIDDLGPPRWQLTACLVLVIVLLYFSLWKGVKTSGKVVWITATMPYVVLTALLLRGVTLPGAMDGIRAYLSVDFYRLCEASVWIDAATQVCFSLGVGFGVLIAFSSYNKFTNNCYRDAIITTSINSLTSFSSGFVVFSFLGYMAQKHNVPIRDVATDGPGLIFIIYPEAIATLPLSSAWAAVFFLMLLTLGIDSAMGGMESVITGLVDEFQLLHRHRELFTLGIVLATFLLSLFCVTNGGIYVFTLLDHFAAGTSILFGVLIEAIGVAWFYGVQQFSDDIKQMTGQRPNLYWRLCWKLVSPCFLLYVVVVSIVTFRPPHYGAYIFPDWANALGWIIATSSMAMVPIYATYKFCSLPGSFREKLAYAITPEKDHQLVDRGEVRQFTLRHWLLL
Protocol: as §1, §2

[3] = molecular target: T3, noradrenaline (NA) reuptake in synaptosomes (Rattus norvegicus, UniProt Q63380); assay: Inhibition of NA reuptake in synaptosomes; type: biochemical; conditions: 3H-NA, read-out: NA-uptake IC50
T3 construct: in synaptosomes as described in WO 97/16451; from tissue
T3 sequence (Q63380 1-617): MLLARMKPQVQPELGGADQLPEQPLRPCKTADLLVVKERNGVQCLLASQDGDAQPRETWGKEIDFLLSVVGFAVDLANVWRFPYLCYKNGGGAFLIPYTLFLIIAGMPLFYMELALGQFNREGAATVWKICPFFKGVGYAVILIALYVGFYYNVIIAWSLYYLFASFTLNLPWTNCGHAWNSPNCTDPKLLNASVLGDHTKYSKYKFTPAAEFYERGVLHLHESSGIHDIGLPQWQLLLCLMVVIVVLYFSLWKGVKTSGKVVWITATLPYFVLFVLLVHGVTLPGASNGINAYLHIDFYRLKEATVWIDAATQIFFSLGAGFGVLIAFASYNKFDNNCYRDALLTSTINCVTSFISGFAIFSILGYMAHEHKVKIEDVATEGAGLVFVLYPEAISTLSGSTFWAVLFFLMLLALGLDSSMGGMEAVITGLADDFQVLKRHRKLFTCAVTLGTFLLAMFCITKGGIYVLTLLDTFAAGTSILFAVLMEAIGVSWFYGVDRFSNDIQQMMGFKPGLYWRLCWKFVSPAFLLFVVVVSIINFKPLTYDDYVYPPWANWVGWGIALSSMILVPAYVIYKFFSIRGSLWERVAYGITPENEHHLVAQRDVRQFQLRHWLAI
Protocol: as §1, §2

| melting point | pIC50 [1] | pIC50 [2] | pIC50 [3] | Compound |
| --- | --- | --- | --- | --- |
| 184.1 to 185.9 °C | – | – | – | CC1(C)CC(OC(c2ccccc2)c2ccccc2)CC(C)(C)N1 (as salt: hydrochloric acid salt) [4-Benzhydryloxy-2,2,6,6-tetramethyl-piperidine] |
| 242 to 265 °C | – | – | – | CC1(C)CC(OC(c2ccc(F)cc2)c2ccc(F)cc2)CC(C)(C)N1 (as salt: hydrochloric acid salt) [4-[Bis-(4-fluoro-phenyl)-methoxy]-2,2,6,6-tetramethyl-piperidine] |
| – | 4.59 | 6.40 | 7.22 | CC1(C)CC(OC(c2ccccc2)c2ccccc2)CC(C)(C)N1 [4-Benzhydryloxy-2,2,6,6-tetramethyl-piperidine] |
| – | < 6.00 | 7.42 | 6.23 | CC1(C)CC(OC(c2ccc(F)cc2)c2ccc(F)cc2)CC(C)(C)N1 [4-[Bis-(4-fluoro-phenyl)-methoxy]-2,2,6,6-tetramethyl-piperidine] |
